Experimental findings from US12564638B2 (SHANGHAITECH UNIVERSITY, priority 2019, dated 2026) are described below.

What all share (assay type): cell-based
The subject of assay [1] is HCC827 cells (EGFR Exon19 del, non-small cell lung cancer cells). Nature of the assay: Cell viability assay (WST/CCK8), HCC827 cells. As to conditions: Homo sapiens, HCC827, 72 h, read-out: IC50 (half inhibitory concentration). The method in brief:
(§1)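 Plated 3 000 cells/well in complete RPMI1640 the day before dosing; controls were DMSO (negative) and EGFR TKIs (positive).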

For assay [2], the system named is PC9 cells (EGFR Exon 19 del, non-small cell lung cancer cells). Nature of the assay: Cell viability assay (WST/CCK8), PC9 cells. As to conditions: Homo sapiens, read-out: IC50 (half inhibitory concentration). The method in brief: as §1
The subject of assay [3] is H1975 (EGFR T790M+L858R mutation, non-small cell lung cancer cell line). Nature of the assay: Cell viability assay (WST/CCK8), H1975 cells. As to conditions: Homo sapiens, read-out: IC50 (half inhibitory concentration). The source says: (§2) The cell lines with abnormal EGFR expression used are as follows: • HCC827 cells (EGFR Exon19 del, non-small cell lung cancer cells); • PC9 cells (EGFR Exon 19 del, non-small cell lung cancer cells); • PC9BracA1 (EGFR Exon 19 del+T790M, non-small cell lung cancer cells) • H1975 (EGFR Exon T790M+L858R mutation, non-small cell lung cancer cell line) • BT474 cells (HER2 positive breast cancer cells)
(§3) All of the half inhibitory concentrations (IC50) of these compounds of the present invention were determined with WST reagent from Fuyuan Biotec Company. The specific experiment procedures are as follows: Cancer cells were planted in 96-well-plate at the density of 3 000 cells per well with 100 μL RPMI1640 completed culture medium. In the next day, compounds with indicated concentrations were added to the cells, DMSO was used as the negative control and the EGFR TKIs were used to treat cells as the positive groups. After 72 hours drug treatment, cell viability was measured by using the WST reagent following the instructions.

The test system of assay [4] is PC9BracA1 (EGFR Exon 19 del+T790M, non-small cell lung cancer cells). The assay can be described thus: Cell viability assay (WST/CCK8), PC9Brac1 cells. As to conditions: read-out: IC50 (half inhibitory concentration).
Excerpt: as §2, §3

Setting [5] is: Table 8, osimertinib-based compounds, HCC827, 72 hours, WST.
Where [6] appears, read: PC-9, Table 8, osimertinib-based compounds, PC9, 72 hours, WST.
The mark [7] stands for this setting: NCI-H1975, Table 8, osimertinib-based compounds, H1975, 72 hours, WST.
[8] abbreviates: Table 8, osimertinib-based compounds, Pc9Brc1, 72 hours, WST.

Read-outs that look alike come from different tables or passages of the source.

Regarding `C=CC(=O)Nc1cc(Nc2nccc(-c3cn(C)c4ccccc34)n2)c(OC)cc1N(C)CCN(C)CCCCCCCSc1cccc2c1CN(C1CCC(=O)NC1=O)C2=O` (stereo not drawn) [SIAIS337083, N-(2-((2-((7-((2-(2,6-dioxopiperidin-3-yl)-1-oxoisoindolin-4-yl)thio)heptyl)(methyl)amino)ethyl)(methyl)amino)-4-methoxy-5-((4-(1-methyl-1H-indol-3-yl)pyrimidin-2-yl)amino)phenyl)acrylamide], the IC50 in assay [1] (setting [5]) was 0.046 µM; in assay [2] (setting [6]), 0.512 µM; in assay [3] (setting [7]), 0.494 µM; in assay [4] (setting [8]) it was 0.676 µM.
Take `C=CC(=O)Nc1cc2c(Nc3ccc(F)c(Cl)c3)ncnc2cc1OCCCN1CCN(C(=O)CCOCCOCCNc2cccc3c2C(=O)N(C2CCC(=O)NC2=O)C3=O)CC1` (stereo not drawn) [SIAIS262127, N-(4-((3-chloro-4-fluorophenyl)amino)-7-(3-(4-(3-(2-(2-((2-(2,6-dioxopiperidin-3-yl)-1,3-dioxoisoindolin-4-yl)amino)ethoxy)ethoxy)propanoyl)piperazin-1-yl)propoxy)quinazolin-6-yl)acrylamide]: the IC50 worked out at 0.0064 µM in assay [1] (Table 6, canertinib-based compounds, HCC827 (Exon19 Del), 72 hours, WST); 0.0097 µM in assay [2] (PC-9, Table 6, canertinib-based compounds, PC9 (Exon19 Del), 72 hours, WST); 0.468 µM in assay [3] (NCI-H1975, Table 7, canertinib-based compounds, H1975 (L858R + T790M)); 0.423 µM in assay [4] (Table 7, canertinib-based compounds, PC9Brca1 (Ex19del + T790M)).
As for `C=CC(=O)Nc1cc(Nc2nccc(-c3cn(C)c4ccccc34)n2)c(OC)cc1N(C)CCN(C)CCCCCCSc1cccc2c1CN(C1CCC(=O)NC1=O)C2=O` (stereo not drawn) [SIAIS337082, N-(2-((2-((6-((2-(2,6-dioxopiperidin-3-yl)-1-oxoisoindolin-4-yl)thio)hexyl)(methyl)amino)ethyl)(methyl)amino)-4-methoxy-5-((4-(1-methyl-1H-indol-3-yl)pyrimidin-2-yl)amino)phenyl)acrylamide], the IC50 in assay [1] (setting [5]) stood at 0.008 µM; in assay [2] (setting [6]) it was 0.089 µM; in assay [3] (setting [7]) it was 0.055 µM; in assay [4] (setting [8]), 0.218 µM.
Turning to `C=CC(=O)Nc1cc(Nc2nccc(-c3cn(C)c4ccccc34)n2)c(OC)cc1N(C)CCN(C)Cc1ccc(CSc2cccc3c2CN(C2CCC(=O)NC2=O)C3=O)cc1` (stereo not drawn) [SIAIS337088, N-(2-((2-((4-(((2-(2,6-dioxopiperidin-3-yl)-1-oxoisoindolin-4-yl)thio)methyl)benzyl)(methyl)amino)ethyl)(methyl)amino)-4-methoxy-5-((4-(1-methyl-1H-indol-3-yl)pyrimidin-2-yl)amino)phenyl)acrylamide], the IC50 in assay [1] (setting [5]) was 0.005 µM; in assay [2] (setting [6]), 0.302 µM; in assay [3] (setting [7]) it was 0.239 µM; in assay [4] (setting [8]), 0.662 µM.
The like results for `C=CC(=O)Nc1cc(Nc2nccc(-c3cn(C)c4ccccc34)n2)c(OC)cc1N(C)CCNC` [SIAIS337051, N-(4-methoxy-2-(methyl(2-(methylamino)ethyl)amino)-5-((4-(1-methyl-1H-indol-3-yl)pyrimidin-2-yl)amino)phenyl)acrylamide] were, in that order, 0.001 µM, 0.002 µM, 0.001 µM and 0.479 µM.
On to `C=CC(=O)Nc1cc(Nc2nccc(-c3cn(C)c4ccccc34)n2)c(OC)cc1N(C)CCN(C)CCCC#Cc1cccc2c1CN(C1CCC(=O)NC1=O)C2=O` (stereo not drawn) [SIAIS337089, N-(2-((2-((5-(2-(2,6-dioxopiperidin-3-yl)-1-oxoisoindolin-4-yl)pent-4-yn-1-yl)(methyl)amino)ethyl)(methyl)amino)-4-methoxy-5-((4-(1-methyl-1H-indol-3-yl)pyrimidin-2-yl)amino)phenyl)acrylamide], for which the IC50 came out at 0.015 µM in assay [1] (setting [5]), 0.082 µM in assay [2] (setting [6]), 0.016 µM in assay [3] (setting [7]) and 0.107 µM in assay [4] (setting [8]).
For `C=CC(=O)Nc1cc(Nc2nccc(-c3cn(C)c4ccccc34)n2)c(OC)cc1N(C)CCN(C)CCCCCSc1cccc2c1CN(C1CCC(=O)NC1=O)C2=O` (stereo not drawn) [SIAIS337081, N-(2-((2-((5-((2-(2,6-dioxopiperidin-3-yl)-1-oxoisoindolin-4-yl)thio)pentyl)(methyl)amino)ethyl)(methyl)amino)-4-methoxy-5-((4-(1-methyl-1H-indol-3-yl)pyrimidin-2-yl)amino)phenyl)acrylamide] the same measures were 0.184 µM, 0.134 µM, 0.018 µM and 0.207 µM.
Regarding `C=CC(=O)Nc1cc(Nc2nccc(-c3cn(C)c4ccccc34)n2)c(OC)cc1N(C)CCN(C)C` [Osimertinib, reference compound], the IC50 was 0.00036 µM in assay [1]; 0.004 µM in assay [2] (PC-9, 72 h); 0.002 µM in assay [3] (NCI-H1975, 72 h); 0.354 µM in assay [4] (72 h).
In the case of `C=CC(=O)Nc1cc(Nc2nccc(-c3cn(C)c4ccccc34)n2)c(OC)cc1N(C)CCN(C)CCCSc1cccc2c1CN(C1CCC(=O)NC1=O)C2=O` (stereo not drawn) [SIAIS337079, N-(2-((2-((3-((2-(2,6-dioxopiperidin-3-yl)-1-oxoisoindolin-4-yl)thio)propyl)(methyl)amino)ethyl)(methyl)amino)-4-methoxy-5-((4-(1-methyl-1H-indol-3-yl)pyrimidin-2-yl)amino)phenyl)acrylamide], the IC50 in assay [1] (setting [5]) was 0.879 µM; in assay [2] (setting [6]), 0.373 µM; in assay [3] (setting [7]), 0.07 µM; in assay [4] (setting [8]), 0.366 µM.
On to `C=CC(=O)Nc1cc(Nc2nccc(-c3cn(C)c4ccccc34)n2)c(OC)cc1N(C)CCN(C)CCCCCCCCCSc1cccc2c1CN(C1CCC(=O)NC1=O)C2=O` (stereo not drawn) [SIAIS337085, N-(2-((2-((9-((2-(2,6-dioxopiperidin-3-yl)-1-oxoisoindolin-4-yl)thio)nonyl)(methyl)amino)ethyl)(methyl)amino)-4-methoxy-5-((4-(1-methyl-1H-indol-3-yl)pyrimidin-2-yl)amino)phenyl)acrylamide], for which the IC50 in assay [1] (setting [5]) came out at 0.006 µM; in assay [2] (setting [6]), 0.143 µM; in assay [3] (setting [7]), 0.462 µM; in assay [4] (setting [8]), 0.239 µM.
For the molecule `C=CC(=O)Nc1cc(Nc2nccc(-c3cn(C)c4ccccc34)n2)c(OC)cc1N(C)CCN(C)CCCCCCCCCCSc1cccc2c1CN(C1CCC(=O)NC1=O)C2=O` (stereo not drawn) [SIAIS337086, N-(2-((2-((10-((2-(2,6-dioxopiperidin-3-yl)-1-oxoisoindolin-4-yl)thio)decyl)(methyl)amino)ethyl)(methyl)amino)-4-methoxy-5-((4-(1-methyl-1H-indol-3-yl)pyrimidin-2-yl)amino)phenyl)acrylamide], the IC50 in assay [1] (setting [5]) amounted to 0.003 µM; in assay [2] (setting [6]) it was 0.064 µM; in assay [3] (setting [7]) it was 0.203 µM; in assay [4] (setting [8]), 0.194 µM.
For `C=CC(=O)Nc1cc(Nc2nccc(-c3cn(C)c4ccccc34)n2)c(OC)cc1N(C)CCN(C)CCCCCCCCCCCSc1cccc2c1CN(C1CCC(=O)NC1=O)C2=O` (stereo not drawn) [SIAIS337087, N-(2-((2-((11-((2-(2,6-dioxopiperidin-3-yl)-1-oxoisoindolin-4-yl)thio)undecyl)(methyl)amino)ethyl)(methyl)amino)-4-methoxy-5-((4-(1-methyl-1H-indol-3-yl)pyrimidin-2-yl)amino)phenyl)acrylamide] the same measures were 0.091 µM, 0.32 µM, 0.242 µM and 0.598 µM.
